Experimental data taken from patent publication US20240350510A1, “METHODS AND COMPOSITIONS FOR REDUCING TOLERANCE TO OPIOID […] IBOGAINE AND DERIVATIVES THEREOF” (DemeRx, Inc., priority 2014, published 2024).

Test: Effect of ibogaine on QT interval in treated patients
Assay type: in vivo, human
Settings: stated in words only, no values
Text: A prolonged QT interval is a marker of potential Torsades de Pointes, a serious arrhythmia that can result in death. For reasons that are not apparent, this prolongation increases in opioid addicted patients as compared to healthy individuals. […] It is expected that other compounds that share ibogaine's core structure will have a similar prolongation effect on QT interval. See, U.S. Provisional Patent Application No. 61/945,746 filed Feb. 27, 2014 entitled METHOD FOR ACUTE AND LONG-TERM TREATMENT OF DRUG ADDICTION, which application is incorporated by reference in its entirety.
The effect of ibogaine, ibogaine derivative, or a pharmaceutically acceptable salt and/or solvate thereof on QT interval is evaluated in substance-dependent participants in a randomized, placebo-controlled, double-blind trial. Patients are administered 60 mg or 120 mg of the compound and QT interval is measured.

In the case of `CCC1CC2CC3c4[nH]c5ccc(OC)cc5c4CCN(C2)C13` (stereo not shown) [ibogaine], the “prolongation of the treated patient's QT interval” value is reported as “dose dependent prolongation”.
